Assay results: BindingDB's records for doi:10.1016/j.chembiol.2015.08.013 (Aston University, 2015)

Key:
Test in all cases: TG Activity Assays
[1] = target: T1, Protein-glutamine gamma-glutamyltransferase 2 (Homo sapiens, UniProt P21980)
T1 sequence (P21980 whole entry): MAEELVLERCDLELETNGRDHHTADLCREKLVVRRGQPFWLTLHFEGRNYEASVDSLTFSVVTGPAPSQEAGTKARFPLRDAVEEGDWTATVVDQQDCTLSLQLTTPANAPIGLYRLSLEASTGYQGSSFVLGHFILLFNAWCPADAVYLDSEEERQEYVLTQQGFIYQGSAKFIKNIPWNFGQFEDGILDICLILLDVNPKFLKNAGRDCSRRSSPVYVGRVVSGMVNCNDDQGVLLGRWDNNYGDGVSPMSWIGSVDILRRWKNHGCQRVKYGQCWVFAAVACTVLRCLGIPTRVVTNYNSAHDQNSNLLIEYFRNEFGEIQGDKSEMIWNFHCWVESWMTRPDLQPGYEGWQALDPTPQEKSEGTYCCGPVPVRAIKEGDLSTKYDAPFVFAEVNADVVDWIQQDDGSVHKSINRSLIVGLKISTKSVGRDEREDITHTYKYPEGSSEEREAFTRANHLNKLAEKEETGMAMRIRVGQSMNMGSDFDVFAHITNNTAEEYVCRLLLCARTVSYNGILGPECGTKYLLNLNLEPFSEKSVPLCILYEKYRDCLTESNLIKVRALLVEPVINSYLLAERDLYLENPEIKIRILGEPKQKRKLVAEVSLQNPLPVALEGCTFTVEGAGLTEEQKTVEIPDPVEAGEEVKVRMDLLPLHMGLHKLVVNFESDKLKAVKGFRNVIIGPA
Experimental: (§1) The incorporated biotinylated peptides were measured using horseradish peroxidase-conjugated streptavidin and then measured using o-phenylenediamine dihydrochloride substrates. The absorbance was measured at 490 nm using a microplat

[2] = target: T2, Protein-glutamine gamma-glutamyltransferase K (Homo sapiens, UniProt P22735)
T2 sequence (P22735 whole entry): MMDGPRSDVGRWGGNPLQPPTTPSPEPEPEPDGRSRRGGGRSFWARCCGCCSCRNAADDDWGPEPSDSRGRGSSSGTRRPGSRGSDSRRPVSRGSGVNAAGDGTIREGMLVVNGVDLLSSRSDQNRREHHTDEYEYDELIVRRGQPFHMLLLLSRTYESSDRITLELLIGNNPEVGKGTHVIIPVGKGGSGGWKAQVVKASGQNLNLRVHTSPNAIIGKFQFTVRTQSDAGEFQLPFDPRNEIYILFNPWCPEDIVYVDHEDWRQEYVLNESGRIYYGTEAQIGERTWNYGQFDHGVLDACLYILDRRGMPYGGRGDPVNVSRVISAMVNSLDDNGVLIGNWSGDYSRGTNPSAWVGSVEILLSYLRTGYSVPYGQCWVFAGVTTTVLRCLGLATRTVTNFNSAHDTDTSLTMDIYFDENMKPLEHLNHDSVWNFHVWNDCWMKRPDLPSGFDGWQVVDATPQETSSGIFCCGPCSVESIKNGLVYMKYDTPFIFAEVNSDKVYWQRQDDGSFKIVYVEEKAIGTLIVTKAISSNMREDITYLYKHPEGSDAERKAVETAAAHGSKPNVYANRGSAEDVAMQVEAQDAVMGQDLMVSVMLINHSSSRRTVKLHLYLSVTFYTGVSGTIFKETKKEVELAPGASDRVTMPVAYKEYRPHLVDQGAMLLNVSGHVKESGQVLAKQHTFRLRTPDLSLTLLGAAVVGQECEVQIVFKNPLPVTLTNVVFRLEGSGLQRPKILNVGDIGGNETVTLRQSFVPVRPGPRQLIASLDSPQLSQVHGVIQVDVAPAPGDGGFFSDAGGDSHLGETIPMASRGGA
Experimental: as §1

[3] = target: T3, Protein-glutamine gamma-glutamyltransferase E (Homo sapiens, UniProt Q08188)
T3 sequence (Q08188 whole entry): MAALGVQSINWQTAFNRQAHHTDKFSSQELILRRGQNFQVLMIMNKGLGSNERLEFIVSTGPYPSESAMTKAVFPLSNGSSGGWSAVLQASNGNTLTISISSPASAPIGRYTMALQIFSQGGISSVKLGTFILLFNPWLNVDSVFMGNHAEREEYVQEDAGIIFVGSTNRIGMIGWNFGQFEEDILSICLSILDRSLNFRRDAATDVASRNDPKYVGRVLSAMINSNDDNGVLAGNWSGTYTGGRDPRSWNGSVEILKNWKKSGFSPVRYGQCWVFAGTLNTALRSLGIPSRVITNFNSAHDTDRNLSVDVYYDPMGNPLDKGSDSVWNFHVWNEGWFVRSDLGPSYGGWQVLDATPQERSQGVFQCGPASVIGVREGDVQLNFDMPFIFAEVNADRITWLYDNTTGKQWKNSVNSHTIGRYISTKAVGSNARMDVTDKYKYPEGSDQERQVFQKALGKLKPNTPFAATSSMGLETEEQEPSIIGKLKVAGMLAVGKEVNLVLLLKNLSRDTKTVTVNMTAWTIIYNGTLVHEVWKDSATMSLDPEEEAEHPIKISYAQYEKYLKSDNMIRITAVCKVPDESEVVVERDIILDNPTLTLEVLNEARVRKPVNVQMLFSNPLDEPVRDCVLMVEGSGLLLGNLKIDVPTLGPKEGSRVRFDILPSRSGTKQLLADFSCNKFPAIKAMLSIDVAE
Experimental: as §1

## O=C(CBr)NCC(=O)N1CCN(C(=O)OCC23CC4CC(CC(C4)C2)C3)CC1 [1-Adamantylmethyl 4-[2-[(2-bromoacetyl)amino]acetyl]piperazine-1-carboxylate (6f)]
[1]
  IC50: 0.00629 µM

## C=CC(=O)NCC(=O)N1CCN(C(=O)OCCC23CC4CC(CC(C4)C2)C3)CC1 [2-(1-Adamantyl)ethyl 4-[2-(prop-2-enoylamino)acetyl]piperazine-1-carboxylate (3g)]
[2]
  IC50: > 100 µM
[1]
  IC50: 0.9 µM
[3]
  IC50: > 100 µM

## O=C(CBr)NCC(=O)N1CCN(C(=O)OCCC23CC4CC(CC(C4)C2)C3)CC1 [2-(1-Adamantyl)ethyl 4-[2-[(2-bromoacetyl)amino]acetyl]piperazine-1-carboxylate (6g)]
[2]
  IC50: 3 µM
[3]
  IC50: 50 µM

## C=CC(=O)NCC(=O)N1CCN(C(=O)OCc2ccc3ccccc3c2)CC1 [2-Naphthylmethyl 4-[2-(prop-2-enoylamino)acetyl]piperazine-1-carboxylate (3c)]
[2]
  IC50: > 100 µM
[1]
  IC50: 0.44 µM
[3]
  IC50: > 100 µM

## O=C(CBr)NCC(=O)N1CCN(C(=O)OCc2ccc3ccccc3c2)CC1 [2-Naphthylmethyl 4-[2-[(2-bromoacetyl)amino]acetyl]piperazine-1-carboxylate (6c)]
[1]
  IC50: 0.029 µM

## C=CC(=O)NCC(=O)N1CCN(C(=O)OCc2ccc(C(=O)OC)cc2)CC1 [(4-Methoxycarbonylphenyl)methyl 4-[2-(prop-2-enoylamino)acetyl]piperazine-1-carboxylate (3b)]
[1]
  IC50: 6.3 µM

## COC(=O)c1ccc(COC(=O)N2CCN(C(=O)CNC(=O)CBr)CC2)cc1 [(4-Methoxycarbonylphenyl)methyl 4-[2-[(2-bromoacetyl)amino]acetyl]piperazine-1-carboxylate (6b)]
[1]
  IC50: 0.0021 µM

## COC(=O)c1ccc2cc(COC(=O)N3CCN(C(=O)CNC(=O)CBr)CC3)ccc2c1 [(6-Methoxycarbonyl-2-naphthyl)methyl 4-[2-[(2-bromoacetyl)amino]acetyl]piperazine-1-carboxylate (6d)]
[2]
  IC50: 5 µM
[1]
  IC50: 0.015 µM
[3]
  IC50: 65 µM

## COC(=O)c1ccc2cc(COC(=O)N3CCN(C(=O)CNC(=O)CCl)CC3)ccc2c1 [(6-Methoxycarbonyl-2-naphthyl)methyl 4-[2-[(2-chloroacetyl)amino]acetyl]piperazine-1-carboxylate (6n)]
[1]
  IC50: 0.00665 µM

## C=CC(=O)NCC(=O)N1CCN(C(=O)OCc2ccccc2)CC1 [Benzyl 4-[2-(prop-2-enoylamino)acetyl]piperazine-1-carboxylate (3a)]
[1]
  IC50: 5.92 µM

## C=CS(=O)(=O)NCC(=O)N1CCN(C(=O)OCc2ccccc2)CC1 [Benzyl 4-[2-(vinylsulfonylamino)acetyl]piperazine-1-carboxylate (2a)]
[1]
  IC50: 1.73 µM

## Cc1c(C)[n+](C)c(SCC(=O)NCC(=O)N2CCN(C(=O)OCc3ccccc3)CC2)n1C [Benzyl 4-[2-[[2-(1,3,4,5-tetramethylimidazol-1-ium-2-yl)sulfanylacetyl]amino]-acetyl]-piperazine-1-carboxylate bromide (1s)]
[1]
  IC50: 100 µM

## C[S+](C)CC(=O)NCC(=O)N1CCN(C(=O)OCc2ccc3ccccc3c2)CC1 [Dimethyl-[2-[[2-[4-(2-naphthylmethoxycarbonyl)piperazin-1-yl]-2-oxo-ethyl]amino]-2-oxo-ethyl]sulfonium bromide (1c)]
[2]
  IC50: > 100 µM
[1]
  IC50: 1.07 µM
[3]
  IC50: > 100 µM

## O=C(CBr)NCC(=O)N1CCN(C(=O)C23CC4CC(CC(C4)C2)C3)CC1 [N-[2-[4-(adamantane-1-carbonyl)piperazin-1-yl]-2-oxo-ethyl]-2-bromo-acetamide (6e)]
[2]
  IC50: 1 µM
[1]
  IC50: 0.0039 µM
[3]
  IC50: 70 µM

## O=C(CCl)NCC(=O)N1CCN(C(=O)C23CC4CC(CC(C4)C2)C3)CC1 [N-[2-[4-(adamantane-1-carbonyl)piperazin-1-yl]-2-oxo-ethyl]-2-chloro-acetamide (6o)]
[1]
  IC50: 0.00875 µM

## C=CS(=O)(=O)NCC(=O)N1CCN(C(=O)C23CC4CC(CC(C4)C2)C3)CC1 [N-[2-[4-(adamantane-1-carbonyl)piperazin-1-yl]-2-oxo-ethyl]ethenesulfonamide (2e)]
[1]
  IC50: 0.875 µM

## C=CC(=O)NCC(=O)N1CCN(S(=O)(=O)c2cccc3c(N(C)C)cccc23)CC1 [N-[2-[4-[[5-(dimethylamino)-1-naphthyl]sulfonyl]piperazin-1-yl]-2-oxo-ethyl]prop-2-enamide (3h)]
[2]
  IC50: 25 µM
[3]
  IC50: 20 µM

## C[S+](C)CC(=O)NCC(=O)N1CCN(C(=O)OCc2ccccc2)CC1 [[2-[[2-(4-Benzyloxycarbonylpiperazin-1-yl)-2-oxo-ethyl]amino]-2-oxo-ethyl]-dimethylsulfonium bromide (1a)]
[2]
  IC50: > 100 µM
[1]
  IC50: 1.4 µM
[3]
  IC50: > 100 µM

## C[S+](C)CC(=O)NCC(=O)N1CCN(C(=O)OC(C)(C)C)CC1 [[2-[[2-(4-tert-Butoxycarbonylpiperazin-1-yl)-2-oxo-ethyl]amino]-2-oxo-ethyl]-dimethylsulfonium bromide (1m)]
[2]
  IC50: > 100 µM
[1]
  IC50: 0.273 µM
[3]
  IC50: > 100 µM

## C[S+](C)CC(=O)NCC(=O)N1CCN(C(=O)OCCC23CC4CC(CC(C4)C2)C3)CC1 [[2-[[2-[4-[2-(1-Adamantyl)ethoxycarbonyl]piperazin-1-yl]-2-oxo-ethyl]amino]-2-oxo-ethyl]-dimethyl-sulfonium bromide (1g)]
[1]
  IC50: 3.15 µM

## COC(=O)c1ccc(COC(=O)N2CCN(C(=O)CNC(=O)C[S+](C)C)CC2)cc1 [[2-[[2-[4-[(4-Methoxycarbonylphenyl)methoxycarbonyl]piperazin-1-yl]-2-oxo-ethyl]-amino]-2-oxo-ethyl]-dimethyl-sulfonium bromide (1b)]
[2]
  IC50: > 100 µM
[1]
  IC50: 3.3 µM
[3]
  IC50: > 100 µM
